Test results from ChEMBL document CHEMBL5226361, “Marine Sponge-Derived Alkaloid Induces Mitochondrial Dysfunction and Inhibits the PI3K/AKT/mTOR Signaling Pathway against Burkitt's Lymphoma” (J Nat Prod, 2023).
Active and inactive are the calls of the source. The rule behind the calls is not given here.

Legend:
Daudi [1] = assay: Induction of cell cycle arrest in human Daudi cells assessed as S phase cells at 3 uM incubated for 24 hrs by PI staining based flow cytometry analysis (reference value: 49.79%); assay type: functional
Daudi [2] = assay: Induction of apoptosis in human Daudi cells assessed as necrotic cells at 3 uM incubated for 24 hrs by Annexin V-FITC/PI staining based flow cytometric analysis (reference value: 1.0%); assay type: functional
Raji [3] = assay: Induction of mitochondrial dysfunction in human Raji cells assessed as decrease in ATP content incubated for 24 hrs by CellTiter-Lumi […] assay; assay type: functional, cell-based; conditions: dose 1.25-5 µM
[4] = Inhibition of PI3K/AKT/mTOR signalling pathway in human Raji cells assessed as increase in ratio of mTOR phosphorylation to total mTOR protein level at 5 uM incubated for 12 hrs in the presence of YS49 by Western blot analysis; assay type: cell-based
Daudi [5] = assay: Induction of apoptosis in human Daudi cells assessed as downregulation of Bcl-xl expression at 0.75 to 3 uM incubated for 24 hrs by Western blot analysis; assay type: functional, cell-based; conditions: dose 0.75-3 µM
Raji [6] = assay: Induction of apoptosis in human Raji cells assessed as viable cells at 5 uM incubated for 24 hrs by Annexin V-FITC/PI staining based flow cytometric analysis (reference value: 97.8%); assay type: functional; conditions: read-out: Activity
Raji [7] = assay: Induction of apoptosis in human Raji cells assessed as early apoptotic cells at 5 uM incubated for 24 hrs by Annexin V-FITC/PI staining based flow cytometric analysis (reference value: 0.8%); assay type: functional
Raji [8] = assay: Induction of apoptosis in human Raji cells assessed as total apoptotic cells at 5 uM incubated for 48 hrs by Annexin-V/PI staining based flow cytometric analysis relative to control; assay type: functional
Raji [9] = assay: Induction of apoptosis in human Raji cells assessed as downregulation of Mcl-1 expression at 1.25 to 5 uM incubated for 24 hrs by Western blot analysis; assay type: functional, cell-based; conditions: dose 1.25-5 µM
Raji [10] = assay: Induction of apoptosis in human Raji cells assessed as upregulation of cleaved caspase-3 expression at 1.25 to 5 uM incubated for 24 hrs by Western blot analysis; assay type: functional, cell-based; conditions: dose 1.25-5 µM
Daudi [11] = assay: Induction of mitochondrial dysfunction in human Daudi cells assessed as decrease in ATP content incubated for 24 hrs by CellTiter-Lumi […] assay; assay type: functional, cell-based; conditions: dose 0.75-3 µM
[12] = Inhibition of PI3K/AKT/mTOR signalling pathway in human Raji cells assessed as inhibition of mTOR phosphorylation incubated for 24 hrs by Western blot analysis; assay type: cell-based; conditions: dose 1.25-5 µM
Daudi [13] = assay: Induction of cell cycle arrest at G0/G1 phase in human Daudi cells assessed as downregulation of CDK2 protein expression at 0.75 to 3 uM incubated for 24 to 48 hrs by Western blot analysis; assay type: functional, cell-based; conditions: dose 0.75-3 µM, time 24-48 hrs
Raji [14] = assay: Induction of apoptosis in human Raji cells assessed as necrotic cells at 5 uM incubated for 24 hrs in the presence of YS49 by Annexin V-FITC/PI staining based flow cytometric analysis (reference value: 1.5%); assay type: functional
Daudi [15] = assay: Induction of apoptosis in human Daudi cells assessed as effect on caspase-8 protein expression at 0.75 to 3 uM incubated for 24 hrs by Western blot analysis; assay type: functional, cell-based; conditions: dose 0.75-3 µM
Raji [16] = assay: Induction of apoptosis in human Raji cells assessed as upregulation of cleaved caspase-9 expression at 1.25 to 5 uM incubated for 24 hrs by Western blot analysis; assay type: functional, cell-based; conditions: dose 1.25-5 µM
Daudi [17] = assay: Induction of apoptosis in human Daudi cells assessed as upregulation of cleaved caspase-3 expression at 0.75 to 3 uM incubated for 24 hrs by Western blot analysis; assay type: functional, cell-based; conditions: dose 0.75-3 µM
Raji [18] = assay: Induction of apoptosis in human Raji cells assessed as effect on caspase-8 protein expression at 1.25 to 5 uM incubated for 24 hrs by Western blot analysis; assay type: functional, cell-based; conditions: dose 1.25-5 µM
[19] = Inhibition of PI3K/AKT/mTOR signalling pathway in human Raji cells assessed as increase in ratio of AKT phosphorylation at […] residue to total AKT protein level at 5 uM incubated for 12 hrs in the presence of YS49 by Western blot analysis; assay type: cell-based
[20] = Inhibition of PI3K/AKT/mTOR signalling pathway in human Raji cells assessed as increase in ratio of PI3K phosphorylation to total PI3K protein level at 5 uM incubated for 12 hrs in the presence of YS49 by Western blot analysis; assay type: cell-based
Daudi [21] = assay: Induction of mitochondrial oxidative damage in human Daudi cells assessed as increase in intracellular mitochondrial superoxide generation at 3 uM incubated for 1 to 6 hrs by MitoSOX red dye based flow cytometric analysis; assay type: functional, cell-based; conditions: time 1-6 hrs
[22] = Inhibition of PI3K/AKT/mTOR signalling pathway in human Daudi cells assessed as inhibition of AKT phosphorylation at […] residue incubated for 24 hrs by Western blot analysis; assay type: cell-based; conditions: dose 0.75-3 µM
Raji [23] = assay: Induction of mitochondrial dysfunction in human Raji cells assessed as decrease in ATP-5H protein expression at 2.5 to 5 uM incubated for 48 hrs by Western blot analysis; assay type: functional, cell-based; conditions: dose 2.5-5 µM
Daudi [24] = assay: Induction of apoptosis in human Daudi cells assessed as total apoptotic cells at 3 uM incubated for 24 hrs by Annexin-V/PI staining based flow cytometric analysis relative to control; assay type: functional
Raji [25] = assay: Induction of cell cycle arrest at G0/G1 phase in human Raji cells assessed as upregulation of gamma-H2AX protein expression at 1.25 to 5 uM incubated for 24 to 48 hrs by Western blot analysis; assay type: functional, cell-based; conditions: dose 1.25-5 µM, time 24-48 hrs
[26] = Inhibition of PI3K/AKT/mTOR signalling pathway in human Raji cells assessed as inhibition of PI3K phosphorylation incubated for 24 hrs by Western blot analysis; assay type: cell-based; conditions: dose 1.25-5 µM
[27] = Inhibition of PI3K/AKT/mTOR signalling pathway in human Daudi cells assessed as inhibition of mTOR phosphorylation incubated for 24 hrs by Western blot analysis; assay type: cell-based; conditions: dose 0.75-3 µM
Daudi [28] = assay: Induction of apoptosis in human Daudi cells assessed as early apoptotic cells at 3 uM incubated for 24 hrs in the presence of YS49 by Annexin V-FITC/PI staining based flow cytometric analysis (reference value: 1.7%); assay type: functional
[29] = Inhibition of PI3K/AKT/mTOR signalling pathway in human Raji cells assessed as inhibition of AKT phosphorylation at […] residue incubated for 24 hrs by Western blot analysis; assay type: cell-based; conditions: dose 1.25-5 µM
Raji [30] = assay: Induction of apoptosis in human Raji cells assessed as late apoptotic cells at 5 uM incubated for 24 hrs by Annexin V-FITC/PI staining based flow cytometric analysis (reference value: 0.0%); assay type: functional
Raji [31] = assay: Induction of apoptosis in human Raji cells assessed as nuclear condensation incubated for 48 hrs by Hoechst 33258/PI staining based fluorescence microscopic analysis; assay type: functional, cell-based; conditions: dose 1.25-5 µM
Raji [32] = assay: Induction of apoptosis in human Raji cells assessed as viable cells at 5 uM incubated for 24 hrs in the presence of YS49 by Annexin V-FITC/PI staining based flow cytometric analysis (reference value: 97.8%); assay type: functional; conditions: read-out: Activity
Raji [33] = assay: Induction of cell cycle arrest in human Raji cells assessed as G2 phase cells at 5 uM incubated for 48 hrs by PI staining based flow cytometry analysis (reference value: 10.06%); assay type: functional
Daudi [34] = assay: Effect on total AKT protein level in human Daudi cells at 0.75 to 3 uM incubated for 24 hrs by Western blot analysis; assay type: functional, cell-based; conditions: dose 0.75-3 µM

COc1c(OC)c2c3c(nccc3c1-c1cc(C)cc(C)c1)C(c1cc(C)cc(C)c1)=CN2
Activity (Daudi [1]): 30.03%
Activity (Daudi [2]): 2.2%
Activity (Raji [3]): Dose-Dependent Effect
inhibition [4]: inactive
Activity (Daudi [5]): Active
viability at 5 µM (Raji [6]): 56.2%
Activity (Raji [7]): 21.7%
Activity (Raji [8]): 25.8%
Activity (Raji [9]): Active
Activity (Raji [10]): Active
Activity (Daudi [11]): Dose-Dependent Effect
inhibition [12]: Dose-Dependent Effect
Activity (Daudi [13]): Active
Activity (Raji [14]): 20.8%
Activity (Daudi [15]): inactive
Activity (Raji [16]): Active
Activity (Daudi [17]): Active
Activity (Raji [18]): inactive
inhibition [19]: inactive
inhibition [20]: inactive
Activity (Daudi [21]): Active
inhibition [22]: Dose-Dependent Effect
Activity (Raji [23]): Active
Activity (Daudi [24]): 21.6%
Activity (Raji [25]): Active
inhibition [26]: Dose-Dependent Effect
inhibition [27]: Dose-Dependent Effect
Activity (Daudi [28]): 16.7%
inhibition [29]: Dose-Dependent Effect
Activity (Raji [30]): 4.2%
Activity (Raji [31]): Dose-Dependent Effect
viability at 5 µM (Raji [32]): 67%
Activity (Raji [33]): 9.61%
Activity (Daudi [34]): inactive
